The source of these data is article PMC9588003, “TRPM8 contributes to sex dimorphism by promoting recovery of normal sensitivity in a mouse model of chronic migraine” (Nature Communications, 2022).

SMILES strings stand for the structures.

For the assay, the target named is human TRPM8 (hTRPM8) (Homo sapiens, UniProt Q7Z2W7). In words: whole-cell patch clamp, hTRPM8-HEK293 cells; agonist dose-response. Format: cell-based.
human TRPM8 (hTRPM8), sequence (Q7Z2W7 whole entry): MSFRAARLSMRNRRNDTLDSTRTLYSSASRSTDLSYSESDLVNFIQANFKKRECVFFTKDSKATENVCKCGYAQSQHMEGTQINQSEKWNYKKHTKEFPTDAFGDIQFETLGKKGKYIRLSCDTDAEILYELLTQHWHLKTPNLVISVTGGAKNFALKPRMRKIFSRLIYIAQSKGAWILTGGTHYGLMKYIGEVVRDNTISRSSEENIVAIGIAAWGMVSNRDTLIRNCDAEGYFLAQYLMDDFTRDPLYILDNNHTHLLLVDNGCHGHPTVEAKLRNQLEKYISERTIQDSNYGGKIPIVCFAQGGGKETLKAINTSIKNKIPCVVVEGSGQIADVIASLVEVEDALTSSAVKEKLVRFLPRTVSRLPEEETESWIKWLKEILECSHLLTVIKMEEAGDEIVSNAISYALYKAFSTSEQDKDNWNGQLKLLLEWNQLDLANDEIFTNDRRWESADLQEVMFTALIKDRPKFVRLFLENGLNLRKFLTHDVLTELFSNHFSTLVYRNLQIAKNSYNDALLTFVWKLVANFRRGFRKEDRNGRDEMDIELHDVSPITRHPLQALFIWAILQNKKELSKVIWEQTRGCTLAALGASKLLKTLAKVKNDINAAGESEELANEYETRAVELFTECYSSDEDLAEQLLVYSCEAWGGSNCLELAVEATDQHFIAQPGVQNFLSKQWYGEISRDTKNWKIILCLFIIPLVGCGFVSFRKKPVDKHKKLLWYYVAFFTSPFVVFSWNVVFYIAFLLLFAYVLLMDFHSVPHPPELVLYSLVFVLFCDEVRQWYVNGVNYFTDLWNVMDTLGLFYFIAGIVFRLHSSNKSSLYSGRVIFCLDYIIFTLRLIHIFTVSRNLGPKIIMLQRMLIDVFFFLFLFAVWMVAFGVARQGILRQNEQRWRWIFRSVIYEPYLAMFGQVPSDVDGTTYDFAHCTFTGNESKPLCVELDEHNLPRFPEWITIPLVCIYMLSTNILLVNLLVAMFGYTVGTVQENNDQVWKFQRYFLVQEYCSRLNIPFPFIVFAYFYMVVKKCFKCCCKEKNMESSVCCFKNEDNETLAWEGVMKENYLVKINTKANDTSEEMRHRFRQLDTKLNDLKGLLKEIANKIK

As to `COc1ccc(NC(=O)[C@@H]2C[C@H](C)CC[C@H]2C(C)C)cc1` [WS12, (1R,2S,5R)−2-Isopropyl-N-(4-methoxyphenyl)−5-methylcyclohexanecarboxamide], the EC50 is 500 nM.
